Source: PubChem BioAssay AID248 (DTP/NCI, 2004)
Values joined by “and” are separate entries in the source; they are usually repeats but may differ in a detail not shown here. Equal values may be shown once. Toxic doses and inconclusive results are not listed. No stated cut-off is given here; in the data, active means T/C of 150% or more; inactive means T/C below 125%.

Tested on: L1210 leukemia ip in BDF1 mice, survival T/C
Test: NCI In Vivo Anticancer Drug Screen. Data for tumor model L1210 Leukemia (intraperitoneal) in B6D2F1 (BDF1) mice
Details: endpoint: mean survival time, higher = longer survival
In short: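 Antitumor effect is assessed in tumor-bearing animals. Survival in the compound arm is compared with a vehicle-dosed control arm and expressed as their quotient.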

[1] = dose: 100.0 mg/kg/injection, schedule: Q04DX003 (ip), vehicle: Klucel (hydroxypropylcellulose) (HPC)
[2] = dose: 200.0 mg/kg/injection, schedule: Q04DX003 (ip), vehicle: Klucel (hydroxypropylcellulose) (HPC)
[3] = dose: 400.0 mg/kg/injection, schedule: Q04DX003 (ip), vehicle: Klucel (hydroxypropylcellulose) (HPC)
[4] = dose: 100.0 mg/kg/injection, schedule: Q04DX003 (ip), vehicle: saline with Tween-80
[5] = dose: 200.0 mg/kg/injection, schedule: Q04DX003 (ip), vehicle: saline with Tween-80
[6] = dose: 400.0 mg/kg/injection, schedule: Q04DX003 (ip), vehicle: saline with Tween-80
[7] = dose: 25.0 mg/kg/injection, schedule: Q04DX003 (ip), vehicle: saline with Tween-80
[8] = dose: 100.0 mg/kg/injection, schedule: Q01DX001 (ip), vehicle: saline with Tween-80
[9] = dose: 100.0 mg/kg/injection, schedule: Q01DX009 (ip), vehicle: saline with Tween-80
[10] = dose: 50.0 mg/kg/injection, schedule: Q01DX009 (ip), vehicle: Klucel (hydroxypropylcellulose) (HPC)
[11] = dose: 100.0 mg/kg/injection, schedule: Q01DX009 (ip), vehicle: Klucel (hydroxypropylcellulose) (HPC)
[12] = dose: 100.0 mg/kg/injection, schedule: Q04DX002 (ip), vehicle: Klucel (hydroxypropylcellulose) (HPC)
[13] = dose: 100.0 mg/kg/injection, schedule: Q01DX009 (ip), vehicle: other
[14] = dose: 200.0 mg/kg/injection, schedule: Q04DX002 (ip), vehicle: Klucel (hydroxypropylcellulose) (HPC)
[15] = dose: 400.0 mg/kg/injection, schedule: Q04DX002 (ip), vehicle: Klucel (hydroxypropylcellulose) (HPC)
[16] = dose: 100.0 mg/kg/injection, schedule: Q01DX009 (ip), vehicle: saline
[17] = dose: 200.0 mg/kg/injection, schedule: Q01DX009 (ip), vehicle: saline
[18] = dose: 400.0 mg/kg/injection, schedule: Q01DX009 (ip), vehicle: saline

Measured: T/C

O=C(CCN1CCCCC1)C(O)(c1ccccc1)c1ccccc1
inactive: dose: 75.0 mg/kg/injection, schedule: Q01DX001 (ip), vehicle: other 103 % of control | dose: 150.0 mg/kg/injection, schedule: Q01DX001 (ip), vehicle: other 97 % of control | dose: 300.0 mg/kg/injection, schedule: Q01DX001 (ip), vehicle: other 104 % of control

CC(=O)OCc1c(O)c2c(c(O)c1COC(C)=O)C(=O)C=CC2=O
inactive: dose: 2.0 mg/kg/injection, schedule: Q01DX009 (ip), vehicle: saline 96 % of control | dose: 4.0 mg/kg/injection, schedule: Q01DX009 (ip), vehicle: saline 96 % of control | dose: 8.0 mg/kg/injection, schedule: Q01DX009 (ip), vehicle: saline 88 % of control | dose: 16.0 mg/kg/injection, schedule: Q01DX009 (ip), vehicle: saline 91 % of control

CN(C)c1ccc(CNc2ccc(Cl)cc2)cc1
inactive: [1] 91 % of control | [2] 89 % of control | [3] 93 % of control

O=C(NOC(=O)c1ccco1)c1ccccc1
inactive: [1] 97 % of control | [2] 113 % of control | [3] 104 % of control

COc1ccc(C[n+]2cc([O-])on2)cc1
inactive: dose: 12.5 mg/kg/injection, schedule: Q01DX001 (ip), vehicle: Klucel (hydroxypropylcellulose) (HPC) 101 % of control | dose: 12.5 mg/kg/injection, schedule: Q04DX003 (ip), vehicle: Klucel (hydroxypropylcellulose) (HPC) 104 % of control | dose: 25.0 mg/kg/injection, schedule: Q01DX001 (ip), vehicle: Klucel (hydroxypropylcellulose) (HPC) 99 % of control | dose: 25.0 mg/kg/injection, schedule: Q04DX003 (ip), vehicle: Klucel (hydroxypropylcellulose) (HPC) 104 % of control | dose: 28.75 mg/kg/injection, schedule: Q01DX009 (ip), vehicle: Klucel (hydroxypropylcellulose) (HPC) 114 % of control | dose: 50.0 mg/kg/injection, schedule: Q01DX001 (ip), vehicle: Klucel (hydroxypropylcellulose) (HPC) 99 % of control | dose: 50.0 mg/kg/injection, schedule: Q04DX003 (ip), vehicle: Klucel (hydroxypropylcellulose) (HPC) 104 % of control | dose: 57.5 mg/kg/injection, schedule: Q01DX009 (ip), vehicle: Klucel (hydroxypropylcellulose) (HPC) 103 % of control | dose: 75.0 mg/kg/injection, schedule: Q04DX003 (ip), vehicle: other 106 % of control | dose: 100.0 mg/kg/injection, schedule: Q01DX001 (ip), vehicle: Klucel (hydroxypropylcellulose) (HPC) 102 % of control | dose: 115.0 mg/kg/injection, schedule: Q01DX009 (ip), vehicle: Klucel (hydroxypropylcellulose) (HPC) 120 % of control | dose: 115.0 mg/kg/injection, schedule: Q04DX003 (ip), vehicle: other 87 % of control | dose: 400.0 mg/kg/injection, schedule: Q01DX001 (ip), vehicle: Klucel (hydroxypropylcellulose) (HPC) 108 % of control

Cc1cnc(Cl)c(Br)c1
inactive: [4] 100 % of control | [5] 102 % of control | [6] 98 % of control

O=C(Nc1ccc(Cl)c(Cl)c1)c1ccco1
inactive: dose: 12.5 mg/kg/injection, schedule: Q01DX009 (ip), vehicle: saline with Tween-80 92 % of control and 93 % of control | dose: 25.0 mg/kg/injection, schedule: Q01DX001 (ip), vehicle: saline with Tween-80 97 % of control | dose: 25.0 mg/kg/injection, schedule: Q04DX002 (ip), vehicle: saline with Tween-80 116 % of control and 91 % of control | [7] 96 % of control | dose: 50.0 mg/kg/injection, schedule: Q01DX001 (ip), vehicle: saline with Tween-80 103 % of control | dose: 50.0 mg/kg/injection, schedule: Q04DX002 (ip), vehicle: saline with Tween-80 116 % of control and 91 % of control | dose: 50.0 mg/kg/injection, schedule: Q04DX003 (ip), vehicle: saline with Tween-80 93 % of control | [8] 109 % of control | [9] 93 % of control | [4] 95 % of control

CCOC(=O)c1c[nH]c2c(Cl)ccc(-c3ccccc3)c2c1=O
inactive: [8] 98 % of control | dose: 200.0 mg/kg/injection, schedule: Q01DX001 (ip), vehicle: saline with Tween-80 96 % of control | dose: 400.0 mg/kg/injection, schedule: Q01DX001 (ip), vehicle: saline with Tween-80 93 % of control

C=CCNC(=S)NCc1ccc(Cl)cc1
inactive: dose: 25.0 mg/kg/injection, schedule: Q01DX009 (ip), vehicle: Klucel (hydroxypropylcellulose) (HPC) 100 % of control | [10] 102 % of control | [11] 94 % of control | [12] 111 % of control

Cc1cc(OC(=O)Nc2ccc(Cl)cc2)ccc1Cl
inactive: dose: 100.0 mg/kg/injection, schedule: Q01DX001 (ip), vehicle: other 103 % of control | [13] 93 % of control and 100 % of control | [12] 106 % of control | dose: 100.0 mg/kg/injection, schedule: Q04DX002 (ip), vehicle: other 95 % of control and 91 % of control | dose: 100.0 mg/kg/injection, schedule: Q04DX003 (ip), vehicle: other 96 % of control | dose: 200.0 mg/kg/injection, schedule: Q01DX001 (ip), vehicle: other 96 % of control | dose: 200.0 mg/kg/injection, schedule: Q01DX009 (ip), vehicle: other 93 % of control and 95 % of control | [14] 117 % of control | dose: 200.0 mg/kg/injection, schedule: Q04DX002 (ip), vehicle: other 100 % of control and 91 % of control | dose: 200.0 mg/kg/injection, schedule: Q04DX003 (ip), vehicle: other 91 % of control | dose: 400.0 mg/kg/injection, schedule: Q01DX001 (ip), vehicle: other 96 % of control | dose: 400.0 mg/kg/injection, schedule: Q01DX009 (ip), vehicle: other 92 % of control and 86 % of control | [15] 95 % of control | dose: 400.0 mg/kg/injection, schedule: Q04DX002 (ip), vehicle: other 91 % of control and 92 % of control | dose: 400.0 mg/kg/injection, schedule: Q04DX003 (ip), vehicle: other 95 % of control

O=C(O)/C(=C\C#Cc1ccccc1)c1ccccc1
inactive: [1] 94 % of control | [2] 100 % of control

CC(=O)C1(O)CCCCC1
inactive: [16] 104 % of control | dose: 100.0 mg/kg/injection, schedule: Q04DX003 (ip), vehicle: saline 92 % of control | [17] 98 % of control | dose: 200.0 mg/kg/injection, schedule: Q04DX003 (ip), vehicle: saline 98 % of control | [18] 109 % of control | dose: 400.0 mg/kg/injection, schedule: Q04DX003 (ip), vehicle: saline 94 % of control

CSC(=S)NCC(=O)O
inactive: dose: 50.0 mg/kg/injection, schedule: Q01DX009 (ip), vehicle: saline with Tween-80 89 % of control | [9] 89 % of control | dose: 200.0 mg/kg/injection, schedule: Q01DX009 (ip), vehicle: saline with Tween-80 101 % of control

CCOC(=O)C(C(=O)OCC)C(C)(C)c1ccccc1
inactive: [16] 104 % of control | [17] 103 % of control | [18] 101 % of control

S=C(Nc1ccccc1)c1ccccc1
inactive: [12] 89 % of control | [14] 92 % of control | [15] 105 % of control

O=S(=O)(O)c1ccc(-c2ccccc2)cc1
inactive: [10] 106 % of control | [11] 94 % of control | [1] 89 % of control | [2] 94 % of control

O=C(OC1COC(OCc2ccccc2)C(OC(=O)c2ccccc2)C1OC(=O)c1ccccc1)c1ccccc1 (configuration not stated)
inactive: [7] 94 % of control | [4] 93 % of control and 87 % of control

c1ccc(C2=NNC(c3ccccn3)=NN2)nc1
inactive: [4] 96 % of control | [5] 96 % of control | [6] 102 % of control

Cc1cccc2c(N=Nc3ccccc3[N+](=O)[O-])c(O)[nH]c12
inactive: dose: 100.0 mg/kg/injection, schedule: Q01DX001 (ip), vehicle: saline 101 % of control | dose: 400.0 mg/kg/injection, schedule: Q01DX001 (ip), vehicle: saline 97 % of control

Cc1cc([N+](=O)[O-])ccc1NC(=O)C(Br)C(Br)C(=O)O (configuration not stated)
inactive: dose: 25.0 mg/kg/injection, schedule: Q01DX009 (ip), vehicle: other 101 % of control | dose: 50.0 mg/kg/injection, schedule: Q01DX009 (ip), vehicle: other 102 % of control | [13] 93 % of control and 94 % of control
